# Measurements taken from ChEMBL document CHEMBL3421596, “A facile synthesis and microtubule-destabilizing properties of 4-(1H-benzo[d]imidazol-2-yl)-furazan-3-amines” (Eur J Med Chem, 2015).
# The source made the active and inactive calls. The rule behind the calls is not given here.
# What was measured:
# [1] = Cytotoxicity against human HCT116 cells; format: functional; conditions: HCT-116
# [2] = Cytotoxicity against human HCT15 cells; format: functional; conditions: HCT-15
# HT-29 = test: Cytotoxicity against human HT-29 cells; format: functional
# KM12 = test: Cytotoxicity against human KM12 cells; format: functional
# SW-620 = test: Cytotoxicity against human SW620 cells; format: functional
# SF-268 = test: Cytotoxicity against human SF268 cells; format: functional
# SF-539 = test: Cytotoxicity against human SF539 cells; format: functional; conditions: read-out: pGI50 (converted)
# SNB-19 = test: Cytotoxicity against human SNB19 cells; format: functional
# U-251 = test: Cytotoxicity against human U251 cells; format: functional
# LOX IMVI = test: Cytotoxicity against human LOXIMVI cells; format: functional
# Malme-3M = test: Cytotoxicity against human MALME-3M cells; format: functional
# M14 = test: Cytotoxicity against human M14 cells; format: functional
# MDA-MB-435 = test: Cytotoxicity against human MDA-MB-435 cells; format: functional; conditions: read-out: pGI50 (converted)
# SK-MEL-2 = test: Cytotoxicity against human SK-MEL-2 cells; format: functional
# SK-MEL-28 = test: Cytotoxicity against human SK-MEL-28 cells; format: functional
# SK-MEL-5 = test: Cytotoxicity against human SK-MEL-5 cells; format: functional
# [3] = Cytotoxicity against human UACC257 cells; format: functional; conditions: UACC-257
# [4] = Cytotoxicity against human UACC62 cells; format: functional; conditions: UACC-62
# IGROV-1 = test: Cytotoxicity against human IGROV1 cells; format: functional
# [5] = Cytotoxicity against human OVCAR3 cells; format: functional; conditions: OVCAR-3, read-out: pGI50 (converted)
# [6] = Cytotoxicity against human OVCAR4 cells; format: functional; conditions: OVCAR-4
# [7] = Cytotoxicity against human OVCAR5 cells; format: functional; conditions: OVCAR-5
# [8] = Cytotoxicity against human OVCAR8 cells; format: functional; conditions: OVCAR-8, read-out: pGI50 (converted)
# [9] = Cytotoxicity against human NCI-ADR-RES cells; format: functional; conditions: read-out: pGI50 (converted)
# [10] = Cytotoxicity against human SKOV3 cells; format: functional; conditions: SK-OV-3
# 786-0 = test: Cytotoxicity against human 786-0 cells; format: functional
# A498 = test: Cytotoxicity against human A498 cells; format: functional
# ACHN = test: Cytotoxicity against human ACHN cells; format: functional
# CAKI-1 = test: Cytotoxicity against human Caki1 cells; format: functional
# RXF 393 = test: Cytotoxicity against human RXF393 cells; format: functional; conditions: read-out: pGI50 (converted)
# SN12C = test: Cytotoxicity against human SN12C cells; format: functional
# TK-10 = test: Cytotoxicity against human TK10 cells; format: functional
# [11] = Cytotoxicity against human UO31 cells; format: functional; conditions: UO-31
# [12] = Cytotoxicity against human PC3 cells; format: functional; conditions: PC-3
# DU-145 = test: Cytotoxicity against human DU145 cells; format: functional
# MCF7 = test: Cytotoxicity against human MCF7 cells; format: functional
# MDA-MB-231 = test: Cytotoxicity against human MDA-MB-231 cells; format: functional
# [13] = Cytotoxicity against human Hs578T cells; format: functional; conditions: Hs-578T
# BT-549 = test: Cytotoxicity against human BT549 cells; format: functional
# T47D = test: Cytotoxicity against human T47D cells; format: functional
# MDA-MB-468 = test: Cytotoxicity against human MDA-MB-468 cells; format: functional
# SNB-75 = test: Cytotoxicity against human SNB75 cells; format: functional
# HOP-92 = test: Cytotoxicity against human HOP92 cells; format: functional
# Paracentrotus lividus [14] = test: Antiproliferative activity in sea urchin embryo assessed as antimitotic activity by measuring cleavage alteration exposed for 8 to 20 mins after fertilization and 45 to 55 mins before first mitotic cycle completion measured 2.5 to […] after fertilization; format: functional
# Paracentrotus lividus [15] = test: Antiproliferative activity in sea urchin embryo assessed as antimitotic activity by measuring cleavage arrest exposed for 8 to 20 mins after fertilization and 45 to 55 mins before first mitotic cycle completion measured 2.5 to […] after fertilization; format: functional
# Paracentrotus lividus [16] = test: Antiproliferative activity in sea urchin embryo assessed as destabilization of microtubule by measuring embryo spinning after 15 mins to 20 hrs; format: functional
# Paracentrotus lividus [17] = test: Antiproliferative activity in sea urchin embryo assessed as destabilization of microtubule by tuberculate eggs after 15 mins to 20 hrs; format: functional, organism-based
# [18] = Cytotoxicity against human NCI60 cells; format: functional
# CCRF-CEM = test: Cytotoxicity against human CCRF-CEM cells; format: functional
# HL-60(TB) = test: Cytotoxicity against human HL-60(TB) cells; format: functional
# K562 = test: Cytotoxicity against human K562 cells; format: functional
# MOLT-4 = test: Cytotoxicity against human MOLT4 cells; format: functional
# RPMI-8226 = test: Cytotoxicity against human RPMI8226 cells; format: functional
# SR = test: Cytotoxicity against human SR cells; format: functional
# A549 = test: Cytotoxicity against human A549 cells; format: functional
# HOP-62 = test: Cytotoxicity against human HOP62 cells; format: functional
# NCI-H226 = test: Cytotoxicity against human NCI-H226 cells; format: functional
# NCI-H23 = test: Cytotoxicity against human NCI-H23 cells; format: functional
# NCI-H322M = test: Cytotoxicity against human NCI-H322M cells; format: functional
# NCI-H460 = test: Cytotoxicity against human NCI-H460 cells; format: functional
# NCI-H522 = test: Cytotoxicity against human NCI-H522 cells; format: functional
# COLO 205 = test: Cytotoxicity against human COLO205 cells; format: functional
# HCC 2998 = test: Cytotoxicity against human HCC2998 cells; format: functional
# SF-295 = test: Cytotoxicity against human SF295 cells; format: functional
smiles,measurement,setting,value
COc1cccc(Cn2c(-c3nonc3N)nc3ccccc32)c1,GI50,[1],389 nM
same,GI50,[2],380 nM
same,GI50,HT-29,316 nM
same,GI50,KM12,501 nM
same,GI50,SW-620,363 nM
same,GI50,SF-268,759 nM
same,GI50,SF-539,214 nM
same,GI50,SNB-19,741 nM
same,GI50,U-251,437 nM
same,GI50,LOX IMVI,537 nM
same,GI50,Malme-3M,525 nM
same,GI50,M14,275 nM
same,GI50,MDA-MB-435,182 nM
same,GI50,SK-MEL-2,288 nM
same,GI50,SK-MEL-28,813 nM
same,GI50,SK-MEL-5,331 nM
same,GI50,[3],316 nM
same,GI50,[4],513 nM
same,GI50,IGROV-1,603 nM
same,GI50,[5],263 nM
same,GI50,[6],8710 nM
same,GI50,[7],550 nM
same,GI50,[8],525 nM
same,GI50,[9],316 nM
same,GI50,[10],437 nM
same,GI50,786-0,437 nM
same,GI50,A498,275 nM
same,GI50,ACHN,550 nM
same,GI50,CAKI-1,417 nM
same,GI50,RXF 393,275 nM
same,GI50,SN12C,646 nM
same,GI50,TK-10,724 nM
same,GI50,[11],589 nM
same,GI50,[12],447 nM
same,GI50,DU-145,603 nM
same,GI50,MCF7,398 nM
same,GI50,MDA-MB-231,955 nM
same,GI50,[13],339 nM
same,GI50,BT-549,363 nM
same,GI50,T47D,501 nM
same,GI50,MDA-MB-468,240 nM
same,GI50,SNB-75,295 nM
same,GI50,HOP-92,372 nM
same,EC,Paracentrotus lividus [14],0.2 µM
same,EC,Paracentrotus lividus [15],2 µM
same,EC,Paracentrotus lividus [16],>5 µM
same,Activity,Paracentrotus lividus [17],Active
same,GI50,[18],457 nM
same,GI50,CCRF-CEM,339 nM
same,GI50,HL-60(TB),263 nM
same,GI50,K562,347 nM
same,GI50,MOLT-4,724 nM
same,GI50,RPMI-8226,363 nM
same,GI50,SR,263 nM
same,GI50,A549,617 nM
same,GI50,HOP-62,468 nM
same,GI50,NCI-H226,525 nM
same,GI50,NCI-H23,832 nM
same,GI50,NCI-H322M,871 nM
same,GI50,NCI-H460,363 nM
same,GI50,NCI-H522,229 nM
same,GI50,COLO 205,372 nM
same,GI50,HCC 2998,1170 nM
COc1cc(Cn2c(-c3nonc3N)nc3ccccc32)ccc1C,GI50,[1],513 nM
same,GI50,[2],457 nM
same,GI50,HT-29,363 nM
same,GI50,KM12,437 nM
same,GI50,SW-620,331 nM
same,GI50,SF-268,776 nM
same,GI50,SF-539,200 nM
same,GI50,SNB-19,724 nM
same,GI50,U-251,537 nM
same,GI50,LOX IMVI,661 nM
same,GI50,Malme-3M,525 nM
same,GI50,M14,550 nM
same,GI50,MDA-MB-435,170 nM
same,GI50,SK-MEL-2,407 nM
same,GI50,SK-MEL-28,794 nM
same,GI50,SK-MEL-5,372 nM
same,GI50,[3],417 nM
same,GI50,[4],617 nM
same,GI50,IGROV-1,724 nM
same,GI50,[5],309 nM
same,GI50,[6],646 nM
same,GI50,[7],776 nM
same,GI50,[8],759 nM
same,GI50,[9],389 nM
same,GI50,[10],537 nM
same,GI50,786-0,646 nM
same,GI50,A498,89.1 nM
same,GI50,ACHN,724 nM
same,GI50,RXF 393,269 nM
same,GI50,SN12C,676 nM
same,GI50,TK-10,1410 nM
same,GI50,[11],575 nM
same,GI50,[12],339 nM
same,GI50,DU-145,513 nM
same,GI50,MCF7,389 nM
same,GI50,MDA-MB-231,1450 nM
same,GI50,[13],288 nM
same,GI50,BT-549,513 nM
same,GI50,T47D,575 nM
same,GI50,MDA-MB-468,229 nM
same,GI50,SF-295,389 nM
same,GI50,SNB-75,263 nM
same,GI50,HOP-92,363 nM
same,EC,Paracentrotus lividus [14],0.2 µM
same,EC,Paracentrotus lividus [15],2 µM
same,EC,Paracentrotus lividus [16],>4 µM
same,Activity,Paracentrotus lividus [17],Active
same,GI50,[18],479 nM
same,GI50,CCRF-CEM,380 nM
same,GI50,HL-60(TB),275 nM
same,GI50,K562,389 nM
same,GI50,MOLT-4,646 nM
same,GI50,RPMI-8226,447 nM
same,GI50,SR,389 nM
same,GI50,A549,562 nM
same,GI50,HOP-62,617 nM
same,GI50,NCI-H226,955 nM
same,GI50,NCI-H23,1150 nM
same,GI50,NCI-H322M,537 nM
same,GI50,NCI-H460,355 nM
same,GI50,NCI-H522,251 nM
same,GI50,COLO 205,372 nM
same,GI50,HCC 2998,1450 nM
